“Also recorded” adds a separate entry of the source. Like-named read-outs stand apart in the source and are kept apart here.
Columns and labels:
[1] = Excretion experiments in rats; format: in vivo, rat
Method: (§1) Pharmacokinetics of IIIa were evaluated after both oral and IV administration in mice, rats, dogs, and monkeys.

[2] = Liver microsome incubation; format: in vitro ADME, human
Method: (§2) The compound of Formula IIIa (below) was incubated for 60 minutes at 37 C with mouse, rat, dog, monkey, and human liver microsomes.
(§3) Concentrations of IIIa were measured at multiple time points by LC-MS/MS. IIIa was stable with predicted clearance well below hepatic blood flow in all species.

[3] = test system: fasting plasma glucose; assay: Single ascending dose study, pharmacodynamics; format: in vivo, human
Method: (§4) Oral doses of IIIa were administered to normal healthy volunteers (NHV) and subjects with type 2 diabetes mellitus (T2DM). A single center, randomized, double-blind, placebo-controlled single ascending dose study was done in both NHV (n=48) and T2DM subjects (n=8). Dose escalation only occurred after review of safety and tolerability data from previous dose levels (n=8/cohort; 2-placebo & 6-IIIa). Dosing of the T2DM cohort was initiated only after the equivalent dose had been administered to NHV and safety data had been reviewed. All subjects were administered IIIa in the morning after an overnight fast with the exception of the NHV in the 40 mg cohort. NHV subjects in the 40 mg cohort initially received IIIa in a fasted state. Following a 3 week washout period, IIIa was readministered after breakfast at 40 mg to determine the effects of food consumption on pharmacokinetics.
Formula IIIa was well-absorbed after oral administration; peak plasma concentrations were reached approximately 5 to 8 hours post dose with a long elimination half-life of about 50 hours. Such data supports, for example, once-daily dosing of Formula III. The effects of Formula IIIa on fasting and post-prandial plasma glucose, glucagon, insulin, and glucagon-like peptide-1 (GLP-1) were evaluated in NH and T2DM subjects, and a meal tolerance test (MTT) and continuous glucose monitoring (CGM) were performed in T2DM subjects. […] The decrease in glucose was most obvious in the fasting plasma glucose (FPG) levels 24 and 48 hours post-dose. The magnitude of decrease in FPG was greater in subjects with T2DM than in NH subjects.

[4] = Liver microsome incubation, statement for all species; format: in vitro ADME; conditions: predicted clearance well below hepatic blood flow
Method: as §2, §3

[5] = Pharmacokinetics after oral and IV administration; format: in vivo; conditions: IV Dose 1 mg/kg, PO Dose 3 mg/kg; for AUC(0-t) / Cmax / Tmax / clearance / half-life / Vd: plasma; for Vd: read-out: VSS
Method: as §1

[6] = Liver microsome incubation; format: in vitro ADME, dog
Method: as §2, §3

[7] = Single ascending dose study, pharmacokinetics; format: in vivo, human; conditions: for AUC(0-inf) / Cmax / Tmax / half-life: human, plasma, po; for time to peak plasma concentrations: post dose
Method: as §4
This was a single center, randomized, double-blind, placebo-controlled single ascending dose study in both normal healthy volunteers (NHV) (n=48) and subjects with type 2 diabetes mellitus (T2DM) (n=8). All subjects were administered Formula IIIa as a solution formulated with Captisol® after an overnight fast with the exception of the NHV in the 40 mg cohort. The NHV 40 mg cohort initially received Formula IIIa in a fasted state. Following a washout period, subjects received 40 mg Formula IIIa after breakfast to explore the effects of food consumption on pharmacokinetics.
Plasma levels of Formula IIIa were measured by validated LC-MS/MS method. Formula IIIa was well absorbed after oral administration with peak plasma concentrations reached approximately 5-8 hours post dose. Consistent with preclinical predictions, clearance was slow and Formula IIIa was not detected in the urine.

[8] = Liver microsome incubation; format: in vitro ADME, mouse
Method: as §2, §3

[9] = Liver microsome incubation; format: in vitro ADME, rat
Method: as §2, §3

[10] = Liver microsome incubation; format: in vitro ADME, monkey
Method: as §2, §3

[11] = T2DM subjects, single dose 40 mg
[12] = human subjects, oral administration
[13] = 40 mg, Diabetic, 40 mg oral, Fasted
[14] = 40 mg, Normal healthy volunteer, 40 mg oral, Fasted
[15] = 40 mg, Normal healthy volunteer, 40 mg oral, Fed

With `Cc1cc(C)c(-c2ccc(NC(=O)[C@H](Cc3ccc(C(=O)NCCS(=O)(=O)O)cc3)c3ccc(-c4ccc(C(C)(C)C)cc4)cc3)cc2)c(C)c1` [IIIa] the “levels detected in the urine” value [1] was “negligible”, the route of excretion [1] was “primarily excreted in the bile” and the “1st-order kinetic rate constant” value ([2]; Human liver microsomes, 60 minutes at 37 C) was 0.0021 min⁻¹. For the same compound, the Predicted systemic clearance ([2]; Human, from liver microsomes) was 3.18 mL/min/kg body weight, the glucose levels ([3]; NH subjects) was “small decreases in glucose levels approximating dose-dependency” and the “mean glucagon and total GLP-1 levels” value ([3]; NH subjects, dose-dependent up to 240 mg, 24 to 96 hours post-dose) was “increased”. The glucose levels ([3]; T2DM subjects) was “lowered glucose levels”, the “duration of glucose suppression” value ([3]; T2DM subjects, single dose) was “continued through 48 hours” and the “lowering of fasting plasma glucose” value [3, 11] was 50 mg/dL. For the same compound, the “lowering of fasting plasma glucose, placebo adjusted” value [3, 11] was 57 mg/dL, the “changes in active GLP-1 or insulin levels” value ([3]; all dose groups, single dose) was “did not generate a consistent trend” and the “duration of glucose suppression” value ([3]; normal healthy volunteers) was “continued through 48 hours”. For the same compound, the fasting plasma glucose ([3]; normal healthy volunteers, single dose 2 to 480 mg) was “lowered fasting plasma glucose”, the “24-hour glucose AUC (continuous glucose monitoring)” value ([3]; subjects with T2DM) was “reduction” and the “mean glucagon and total GLP-1 levels” value ([3]; subjects with T2DM, compared to placebo, 24 to 72 hours post-dose) was “increased compared to placebo treatment”. For the same compound, the “stability in liver microsomes” value [4] was “stable”, the F ([5]; Dog) was 54% and the F ([5]; Monkey) was 21%. The F ([5]; Mouse) was 47%, the F ([5]; Rat) was 36% and the AUC(0-t) ([5]; Dog) was 225000 ng·h/mL. The Cmax ([5]; Dog) was 10900 ng/mL, the Tmax ([5]; Dog) was 4 h and the clearance ([5]; Dog) was 0.07 mL/min/kg. The half-life ([5]; Dog) was 46 h, the Vd ([5]; Dog) was 0.24 L/kg and the AUC(0-t) ([5]; Monkey) was 9850 ng·h/mL. For the same compound, the Cmax ([5]; Monkey) was 1250 ng/mL, the Tmax ([5]; Monkey) was 4 h and the clearance ([5]; Monkey) was 1.13 mL/min/kg. The half-life ([5]; Monkey) was 16.2 h, the Vd ([5]; Monkey) was 0.16 L/kg and the AUC(0-t) ([5]; Mouse) was 16300 ng·h/mL. The Cmax ([5]; Mouse) was 1710 ng/mL, the Tmax ([5]; Mouse) was 6 h and the clearance ([5]; Mouse) was 22.2 mL/min/kg. For the same compound, the half-life ([5]; Mouse) was 5.9 h, the Vd ([5]; Mouse) was 0.62 L/kg and the AUC(0-t) ([5]; Rat) was 7600 ng·h/mL. It also gave a Cmax ([5]; Rat) of 1330 ng/mL, a Tmax ([5]; Rat) of 2 h and a clearance ([5]; Rat) of 2.33 mL/min/kg. The half-life ([5]; Rat) was 10.9 h, the Vd ([5]; Rat) was 0.3 L/kg and the “1st-order kinetic rate constant” value ([6]; Dog liver microsomes, 60 minutes at 37 C) was 0.0016 min⁻¹. The Predicted systemic clearance ([6]; Dog, from liver microsomes) was 4.01 mL/min/kg body weight, the “pharmacokinetics in healthy volunteers vs diabetic subjects” value ([7]; 40 mg) was “comparable” and the “effect of food on pharmacokinetics” value ([7]; 40 mg, healthy volunteers, fasted vs after breakfast) was “comparable”. The “plasma exposure versus dose” value ([7]; 2 to 480 mg oral, human subjects) was “Dose dependent increases”, the CL/F ([7]; Diabetic, 40 mg oral, Fasted) was 1.32 L/h and the CL/F ([7]; Normal healthy volunteer, 40 mg oral, Fasted) was 1.33 L/h. For the same compound, the CL/F ([7]; Normal healthy volunteer, 40 mg oral, Fed) was 1.67 L/h, the “absorption after oral administration” value ([7]; human subjects) was “well absorbed” and the clearance [7, 12] was “slow”. For the same compound, the “detection in the urine” value [7, 12] was “not detected”, the “absorption after oral administration” value ([7]; human subjects, listed as Formula IIIa) was “well absorbed; also recorded: well-absorbed” and the AUC(0-inf) [7, 13] was 33700 ng·h/mL. The Cmax [7, 13] was 1420 ng/mL, the Tmax [7, 13] was 7.5 h and the half-life ([7]; 40 mg, Diabetic, 40 mg oral, Fasted, read-out: t1/2 (converted)) was 58.5 h. It also gave an AUC(0-inf) [7, 14] of 32700 ng·h/mL, a Cmax [7, 14] of 893 ng/mL and a Tmax [7, 14] of 8.4 h. It also gave a half-life ([7]; 40 mg, Normal healthy volunteer, 40 mg oral, Fasted, read-out: t1/2 (converted)) of 51.6 h, an AUC(0-inf) [7, 15] of 25200 ng·h/mL and a Cmax [7, 15] of 779 ng/mL. The Tmax [7, 15] was 7.2 h, the half-life ([7]; 40 mg, Normal healthy volunteer, 40 mg oral, Fed, read-out: t1/2 (converted)) was 53.8 h and the half-life ([7]; oral administration, NH and T2DM subjects, read-out: elimination half-life (converted)) was ~50 h. The “time to peak plasma concentrations” value ([7]; oral administration, human subjects) was 5 to 8 h, the “time to peak plasma concentrations” value ([7]; oral administration, human subjects, listed as Formula IIIa) was 5 to 8 h and the “1st-order kinetic rate constant” value ([8]; Mouse liver microsomes, 60 minutes at 37 C) was 0.0017 min⁻¹. For the same compound, the Predicted systemic clearance ([8]; Mouse, from liver microsomes) was 7.05 mL/min/kg body weight, the “1st-order kinetic rate constant” value ([9]; Rat liver microsomes, 60 minutes at 37 C) was 0.0058 min⁻¹ and the Predicted systemic clearance ([9]; Rat, from liver microsomes) was 13.8 mL/min/kg body weight. For the same compound, the “1st-order kinetic rate constant” value ([10]; Monkey liver microsomes, 60 minutes at 37 C) was 0.0057 min⁻¹ and the Predicted systemic clearance ([10]; Monkey, from liver microsomes) was 11.9 mL/min/kg body weight.
